Measured values: patent publication US4258043A, “Pyrazino-carbazoles, process for the production thereof and pharmaceutical agents” (Cassella Aktiengesellschaft, priority 1979, dated 1981)
Where a name gives a salt, the structure may show the parent alone.

Assays:
LD50 (acute toxicity) = settings: in vivo
Tetrabenazine = experiment: animal or person; assay type: in vivo; settings: read-out: ED50 Tetrabenazine Antagonism
in vivo = assay type: in vivo; settings: in vivo; ratio of LD50 to ED50 tetrabenazine antagonism (head is a drawing); read-out: Dosage [drawing 7]

Work on `Cc1ccc2c(c1)c1c3n2CCNC3CCC1.Cl` (centres unmarked) [8-methyl-2,3,3a,4,5,6-hexahydro-1H-pyrazino[3,2,1-jk]carbazole-hydrochloride, reference compound] yielded an LD50 (LD50 (acute toxicity)) of 122 mg/kg and an ED50 (Tetrabenazine) of 14 mg/kg.

`Cc1ccc2c(c1)c1c3n2CCN=C3CCC1` [Example 1, 8-methyl-2,4,5,6-tetrahydro-1H-pyrazino[3,2,1-jk]carbazole] showed an LD50 (LD50 (acute toxicity)) of 72 mg/kg, a selectivity ratio (in vivo) of 18 and an ED50 (Tetrabenazine) of 4 mg/kg.

With `COc1ccc2c(c1)c1c3n2CCN=C3CCC1` [Example 2, 8-methoxy-2,4,5,6-tetrahydro-1H-pyrazino[3,2,1-jk] carbazole-hydrochlorides] the LD50 (LD50 (acute toxicity)) was 37 mg/kg, the selectivity ratio (in vivo) was 18.5 and the ED50 (Tetrabenazine) was 2 mg/kg.
